According to PMC9412861, “Understanding the pH Dependence of Supersaturation State—A Case Study of Telmisartan” (Pharmaceutics, 2022):
≈ marks a conversion by molar mass, not a printed value. Read-outs that look alike come from different tables or passages of the source.

Experiments:
[1] = ESI mass spectrometry of saturated solutions (aggregation); assay type: physicochemical; conditions: buffer-free saturated solution
Method: An ESI- triple quadrupole-MS/MS instrument (4000 Q TRAP) from Applied Biosystems (Foster City, CA, USA) was used for the MS and MS/MS measurements. Compounds were analyzed in the positive mode, and the settings were ion spray voltage 4500 V, ion source gas (N2) 16 arbitrary units (a.u.), curtain gas (N2) 10 a.u., declustering potential 20 V, and entrance potential 10 V. For MS/MS experiments, the settings were collision gas (N2) medium, and collision energy 51 V. Saturated samples were infused at a rate of 6 μL/min using Harvard Apparatus Syringe pump (Holliston, MA, USA). Analyst 1.4.2. software from Applied Biosystems (Foster City, CA, USA) was used for data acquisition and processing.

[2] = Analysis of solubility-pH data with pDISOL-X; assay type: physicochemical; conditions: from thermodynamic solubility-pH data in distilled water
Text: For the analysis of solubility-pH profile, the pDISOL-X^TM program (in-ADME Research, NY, USA) was used. The mathematical approach used in the program for log S-pH simulation-refinement has been described by Völgyi et al.. The program has been applied in several other recent studies.

[3] = 1H NMR/pH titration (pKa determination); assay type: physicochemical; conditions: 5 v/v % D2O-95 v/v % H2O, NMR-pH titration, 25 °C, I = 0.15 M
Method: All NMR measurements were performed on a Varian 600 MHz spectrometer (Varian Inc., Palo Alto, CA, USA) with a dual 5 mm inverse-detection gradient probehead at 25 °C, constant ionic strength (I = 0.15 M) and using 5 v/v % D2O–95 v/v % H2O as solvent. The spectra were referenced to internal DSS (sodium 3-(trimethylsilyl)-1-propanesulfonate) as chemical shift reference. The pH of the samples (600 μL)were adjusted with concentrated HCl and NaOH and determined by in situ internal indicator molecules optimized for NMR [39, 40]. The concentration of telmisartan was below 1 mM during in the titration solution, due to its poor solubility, but all the peaks were still clearly visible. The water resonance was diminished by a double pulse field gradient spin echo sequence (number of transients = 16, number of points = 16,384, acquisition time = 3.33 s, relaxation delay = 1.5 s).
In order to obtain the acid dissociation constants from the chemical shifts–pH profiles, the software Origin Pro 8 (OriginLab Corp., Northampton, MA, USA) was used to perform non-linear regression with the following function:(2) δobs(pH)=δX^−+∑i=1nδHiX^i−1×10^logβi−i×pH/1+∑i=1n10^logβi−i×pH where δX^- is the chemical shift of the unprotonated ligand (X^−), δHiX^i-1 values stand for the chemical shifts of successively protonated species of X^−, n is the maximum number of protons that can bind to the unprotonated ligand, β is the cumulative macroconstant. The standard deviations of logβ values from the regression analyses were used to calculate the Gaussian propagation of uncertainty for the other equilibrium constants.

[4] = Thermodynamic (equilibrium) solubility, saturation shake-flask, in Prisma HT buffer; assay type: physicochemical; conditions: thermodynamic from solid
Method: (§1) The methods for thermodynamic solubility measurements can be found in Baka et al. (measured amount of TEL: 1 mg/mL, 37 °C, 6 h strirring, 18 h sedimentation). During the thermodynamic solubility measurements in Prisma buffers the concentration of the API was determined without filtering the solutions by the Rainbow Dynamic Dissolution Monitor instrument (Pion Inc., Billerica, MA, USA). In the case of solubility measurements in distilled water, the concentration of the API after filtration with PVDF membrane (0.22 µm) was determined by Jasco V-550 UV–vis spectrophotometer (Jasco Inc., Easton, MD, USA).

[5] = Thermodynamic (equilibrium) solubility, saturation shake-flask, in distilled water; assay type: physicochemical
Method: as §1

[6] = UV/pH titration in aqueous medium (pKa determination); assay type: physicochemical; conditions: for pKa: aqueous 0.15 M KCl solution, UV/pH titration in aqueous medium, I = 0.15 M KCl; for predominant protonated macrospecies: calculated from pKa values at 37 °C
Method: The pKa values of telmisartan were determined by UV-pH titration using the D-PAS™ ultra-violet spectrophotometer attached to a GLpKa instrument (Sirius Analytical Instruments Ltd., Forest Row, UK). First, a stock solution of TEL was prepared in methanol (2 mg/mL). […] Spectra were registered in the 200–700 nm region. The pKa values were calculated by RefinementPro^TM software (Sirius Analytical Instruments Ltd., Forest Row, UK).

[7] = Kinetic solubility measurement (µDISS profiler); assay type: physicochemical
Method: The kinetic solubility measurements of TEL were determined using µDISS™ profiler (Pion Inc., Billerica, MA, USA). The method was described earlier by Kadar et al..

[8] = between pH 3–8; cited from earlier work

## CCCc1nc2c(C)cc(-c3nc4ccccc4n3C)cc2n1Cc1ccc(-c2ccccc2C(=O)O)cc1 [Telmisartan, telmisartan]
[1]; higher pHs (e.g., pH 10)
  dimerization in solution by MS: no dimerization could be observed
[1]; pH range 3–8
  dimerization in solution by MS: peak corresponding to the dimeric structure could be detected
[2]
  dimerization constant logK21: 6.48 ± 0.19
  dimerization constant logK22: 6.35 ± 0.47
[2]; thermodynamic from solid, read-out: calculated intrinsic solubility logS0 (converted)
  solubility: 0.302 µM (≈ 0.155 µg/mL)
[3]; read-out: pKa1 ± SD (Carboxyl Group)
  pKa: 3.21 ± 0.14
[3]; read-out: pKa2 ± SD (Middle Benzimidazole Ring)
  pKa: 4.28 ± 0.07
[3]; read-out: pKa3 ± SD (Terminal Benzimidazole Ring)
  pKa: 6.08 ± 0.04
[4]; aqueous buffer, pH 2.15, 37 °C, read-out: Equilibrium solubility S ± SD
  solubility thermodynamic at 6 h: 119 ± 11.8 µg/mL
[4]; aqueous buffer, pH 2.15, 37 °C, read-out: Equilibrium solubility logS ± SD (converted)
  solubility thermodynamic at 6 h: 229 µM
[4]; aqueous buffer, pH 3.08, 37 °C, read-out: Equilibrium solubility S ± SD
  solubility thermodynamic at 6 h: 13.1 ± 1.73 µg/mL
[4]; aqueous buffer, pH 3.08, 37 °C, read-out: Equilibrium solubility logS ± SD (converted)
  solubility thermodynamic at 6 h: 25.1 µM
[4]; aqueous buffer, pH 3.82, 37 °C, read-out: Equilibrium solubility S ± SD
  solubility thermodynamic at 6 h: 3.62 ± 0.59 µg/mL
[4]; aqueous buffer, pH 3.82, 37 °C, read-out: Equilibrium solubility logS ± SD (converted)
  solubility thermodynamic at 6 h: 7.08 µM
[4]; aqueous buffer, pH 7.88, 37 °C, read-out: Equilibrium solubility S ± SD
  solubility thermodynamic at 6 h: 11.5 ± 0.26 µg/mL
[4]; aqueous buffer, pH 7.88, 37 °C, read-out: Equilibrium solubility logS ± SD (converted)
  solubility thermodynamic at 6 h: 22.4 µM
[4]; aqueous buffer, pH 9.00, 37 °C, read-out: Equilibrium solubility S ± SD
  solubility thermodynamic at 6 h: 130 ± 2.73 µg/mL
[4]; aqueous buffer, pH 9.00, 37 °C, read-out: Equilibrium solubility logS ± SD (converted)
  solubility thermodynamic at 6 h: 251 µM
[4]; aqueous buffer, pH 9.79, 37 °C, read-out: Equilibrium solubility S ± SD
  solubility thermodynamic at 6 h: 1470 ± 255 µg/mL
[4]; aqueous buffer, pH 9.79, 37 °C, read-out: Equilibrium solubility logS ± SD (converted)
  solubility thermodynamic at 6 h: 2880 µM
[4]; aqueous buffer, pH 11.74, 37 °C, read-out: Equilibrium solubility S ± SD
  solubility thermodynamic at 6 h: 2250 ± 145 µg/mL
[4]; aqueous buffer, pH 11.74, 37 °C, read-out: Equilibrium solubility logS ± SD (converted)
  solubility thermodynamic at 6 h: 4370 µM
[4]; pH 1.6, aqueous buffer, pH 1.60, 37 °C, read-out: Equilibrium solubility S ± SD
  solubility thermodynamic at 6 h: 150 ± 38 µg/mL
[4]; pH 1.6, aqueous buffer, pH 1.60, 37 °C, read-out: Equilibrium solubility logS ± SD (converted)
  solubility thermodynamic at 6 h: 288 µM
[4]; pH 2.5, aqueous buffer, pH 2.50, 37 °C, read-out: Equilibrium solubility S ± SD
  solubility thermodynamic at 6 h: 17 ± 0.72 µg/mL
[4]; pH 2.5, aqueous buffer, pH 2.50, 37 °C, read-out: Equilibrium solubility logS ± SD (converted)
  solubility thermodynamic at 6 h: 47.9 µM
[4]; pH 6.5, aqueous buffer, pH 6.50, 37 °C, read-out: Equilibrium solubility S ± SD
  solubility thermodynamic at 6 h: 0.79 ± 0.16 µg/mL
[4]; pH 6.5, aqueous buffer, pH 6.50, 37 °C, read-out: Equilibrium solubility logS ± SD (converted)
  solubility thermodynamic at 6 h: 1.58 µM
[4]; pH 9.4, aqueous buffer, pH 9.40, 37 °C, read-out: Equilibrium solubility S ± SD
  solubility thermodynamic at 6 h: 275 ± 9.4 µg/mL
[4]; pH 9.4, aqueous buffer, pH 9.40, 37 °C, read-out: Equilibrium solubility logS ± SD (converted)
  solubility thermodynamic at 6 h: 537 µM
[5]; pH 2.66, 37 °C, read-out: Equilibrium solubility S ± SD
  solubility thermodynamic at 6 h: 10.8 ± 0.53 µg/mL
[5]; pH 2.66, 37 °C, read-out: Equilibrium solubility logS ± SD (converted)
  solubility thermodynamic at 6 h: 20.9 µM
[5]; thermodynamic from solid, pH 2.16, 37 °C, read-out: Equilibrium solubility S ± SD
  solubility thermodynamic at 6 h: 148 ± 5.48 µg/mL
[5]; thermodynamic from solid, pH 2.16, 37 °C, read-out: Equilibrium solubility logS ± SD (converted)
  solubility thermodynamic at 6 h: 288 µM
[5]; thermodynamic from solid, pH 3.08, 37 °C, read-out: Equilibrium solubility S ± SD
  solubility thermodynamic at 6 h: 3.4 ± 0.49 µg/mL
[5]; thermodynamic from solid, pH 3.08, 37 °C, read-out: Equilibrium solubility logS ± SD (converted)
  solubility thermodynamic at 6 h: 6.61 µM
[5]; thermodynamic from solid, pH 3.98, 37 °C, read-out: Equilibrium solubility S ± SD
  solubility thermodynamic at 6 h: 0.36 ± 0.12 µg/mL
[5]; thermodynamic from solid, pH 3.98, 37 °C, read-out: Equilibrium solubility logS ± SD (converted)
  solubility thermodynamic at 6 h: 0.692 µM
[5]; thermodynamic from solid, pH 7.22, 37 °C, read-out: Equilibrium solubility S ± SD
  solubility thermodynamic at 6 h: 3.65 ± 0.11 µg/mL
[5]; thermodynamic from solid, pH 7.22, 37 °C, read-out: Equilibrium solubility logS ± SD (converted)
  solubility thermodynamic at 6 h: 7.08 µM
[5]; thermodynamic from solid, pH 7.4, 37 °C, read-out: Equilibrium solubility S ± SD
  solubility thermodynamic at 6 h: 13.8 ± 2.81 µg/mL
[5]; thermodynamic from solid, pH 7.4, 37 °C, read-out: Equilibrium solubility logS ± SD (converted)
  solubility thermodynamic at 6 h: 26.9 µM
[6]; 25 °C, read-out: pKa1 ± SD (Carboxyl Group)
  pKa: 3.03 ± 0.04
[6]; 25 °C, read-out: pKa2 ± SD (Middle Benzimidazole Ring)
  pKa: 4.22 ± 0.09
[6]; 25 °C, read-out: pKa3 ± SD (Terminal Benzimidazole Ring)
  pKa: 6.08 ± 0.07
[6]; 37 °C, read-out: pKa1 ± SD (Carboxyl Group)
  pKa: 3.04 ± 0.03
[6]; 37 °C, read-out: pKa2 ± SD (Middle Benzimidazole Ring)
  pKa: 4.08 ± 0.02
[6]; 37 °C, read-out: pKa3 ± SD (Terminal Benzimidazole Ring)
  pKa: 5.91 ± 0.05
[6]; gastric pH (pH 1–2)
  predominant protonated macrospecies: dication (XH3^2+)
[6]; intestinal pH (pH 5–6.5)
  predominant protonated macrospecies: monoprotonated (XH) and the unprotonated anionic (X^−)
[6]; pH of plasma (pH 7.4)
  predominant protonated macrospecies: anionic (X^−)
[7]; Prisma HT buffer, 37 °C
  pH range of minimal kinetic solubility: 3–6
[7]; based on kinetic solubility results
  pH range in which a supersaturated solution is formed: 3–8
[7]; more acidic pHs (below pH 3)
  difference between thermodynamic and kinetic solubility: no significant difference
[7]; pH = 3 to pH = 8
  difference between thermodynamic and kinetic solubility: near two-magnitude difference
[8]
  solubility: low solubility
